From ChEMBL document CHEMBL3286115, “Design and Syntheses of Anti-Tuberculosis Agents Inspired by BTZ043 Using a Scaffold Simplification Strategy” (ACS Med Chem Lett, 2014)
Converted amounts (≈) assume the structure as drawn. The source made the active and inactive calls. The rule behind the calls is not given here.

Assays:
[1] = tested on: Mycobacterium tuberculosis; test: Antimycobacterial activity against Mycobacterium tuberculosis H37Rv in 7H12 medium by microplate alamar blue assay; assay type: functional
[2] = tested on: Mycobacterium tuberculosis; test: Antimycobacterial activity against Mycobacterium tuberculosis H37Rv in GAS medium by microplate alamar blue assay; assay type: functional
Vero = test: Cytotoxicity against African green monkey Vero cells; assay type: cell-based; settings: chlorocebus sabaeus
[3] = tested on: Mycobacterium tuberculosis; test: Antimycobacterial activity against non-replicating Mycobacterium tuberculosis H37Rv by low oxygen recovery assay; assay type: functional, organism-based
[4] = tested on: Mycobacterium tuberculosis; test: Antimycobacterial activity against Mycobacterium tuberculosis H37Rv; assay type: functional

Question: How did the MIC [1] turn out when `C[C@H]1COC2(CCN(S(=O)(=O)c3cc(-c4ccccc4)cc(C(F)(F)F)c3)CC2)O1` was run?
Answer: > 64 µM

Question: And the MIC [2]?
Answer: 17.4 µM (≈ 7.68 µg/mL)

Question: Which MIC [1] does the source give for `C[C@H]1COC2(CCN(S(=O)(=O)c3cc([N+](=O)[O-])cc([N+](=O)[O-])c3)CC2)O1` here?
Answer: 1.53 µM (≈ 0.593 µg/mL)

Question: What about the MIC [2] of the same compound?
Answer: 2.05 µM (≈ 0.794 µg/mL)

Question: And the Activity (Vero)?
Answer: Non-toxic

Question: And the Activity [3]?
Answer: Active

Question: Which results are given for `C[C@H]1COC2(CCC(C(=O)Nc3cccc(C(F)(F)F)c3)CC2)O1` (stereo partly drawn)?
Answer: MIC [1]: > 50 µM; MIC [2]: 17.9 µM (≈ 6.15 µg/mL)

Question: What does the source list for `C[C@H]1COC2(CCC(C(=O)Nc3cc([N+](=O)[O-])cc(C(F)(F)F)c3)CC2)O1` (stereo partly drawn)?
Answer: MIC [1]: 23 µM (≈ 8.93 µg/mL); MIC [2]: 18.4 µM (≈ 7.15 µg/mL)

Question: With `O=C(OCc1ccccc1)c1cc([N+](=O)[O-])cc([N+](=O)[O-])c1` as the compound, how does the MIC [1] read?
Answer: 13 µM (≈ 3.94 µg/mL)

Question: What about the MIC [2] of the same compound?
Answer: 0.27 µM (≈ 0.0816 µg/mL)

Question: With `C[C@H]1COC2(CCC(C(=O)Nc3cc([N+](=O)[O-])cc([N+](=O)[O-])c3)CC2)O1` (stereo partly drawn) as the compound, how does the MIC [1] read?
Answer: 47.9 µM (≈ 17.5 µg/mL)

Question: And the MIC [2]?
Answer: 22.6 µM (≈ 8.26 µg/mL)

Question: Which results are given for `C[C@H]1COC2(CCN(S(=O)(=O)c3cc([N+](=O)[O-])cc(C(F)(F)F)c3)CC2)O1`?
Answer: MIC [1]: 6.99 µM (≈ 2.87 µg/mL); MIC [2]: 10.2 µM (≈ 4.19 µg/mL); Activity (Vero): Toxic; Activity [3]: Active

Question: Which MIC [1] does the source give for `C[C@H]1COC2(CCN(S(=O)(=O)c3cc(Br)cc(C(F)(F)F)c3)CC2)O1` here?
Answer: > 10 µM

Question: For `O=C(OCc1ccccc1)c1cc([N+](=O)[O-])cc(C(F)(F)F)c1`, which MIC [1] is on record?
Answer: > 50 µM

Question: And the MIC [2]?
Answer: 2.03 µM (≈ 0.66 µg/mL)

Question: `C[C@H]1COC2(CCN(S(=O)(=O)c3cc(-c4cccc[n+]4[O-])cc(C(F)(F)F)c3)CC2)O1` was tested. Which MIC [1] did it give?
Answer: > 64 µM

Question: And the MIC [2]?
Answer: > 64 µM

Question: How did the MIC [1] turn out when `C[C@H]1COC2(CCN(S(=O)(=O)c3cc(-c4ccccn4)cc(C(F)(F)F)c3)CC2)O1` was run?
Answer: > 50 µM

Question: And the MIC [2]?
Answer: 49.3 µM (≈ 21.8 µg/mL)

Question: For `C[C@H]1COC2(CCN(c3nc(=O)c4cc(C(F)(F)F)cc([N+](=O)[O-])c4s3)CC2)O1` [BTZ-043], which MIC [1] is on record?
Answer: < 0.02 µM

Question: And the MIC [2]?
Answer: < 0.02 µM

Question: What about the MIC [4] of the same compound?
Answer: 1 ng/mL (≈ 2.32 nM)
